From BindingDB's records for doi:10.1021/acs.biochem.5b00221 (Dalhousie University, 2015) come the findings set out here.

The test addresses T1, Mandelate racemase (Pseudomonas putida, UniProt P11444).
T1 sequence (P11444 whole entry): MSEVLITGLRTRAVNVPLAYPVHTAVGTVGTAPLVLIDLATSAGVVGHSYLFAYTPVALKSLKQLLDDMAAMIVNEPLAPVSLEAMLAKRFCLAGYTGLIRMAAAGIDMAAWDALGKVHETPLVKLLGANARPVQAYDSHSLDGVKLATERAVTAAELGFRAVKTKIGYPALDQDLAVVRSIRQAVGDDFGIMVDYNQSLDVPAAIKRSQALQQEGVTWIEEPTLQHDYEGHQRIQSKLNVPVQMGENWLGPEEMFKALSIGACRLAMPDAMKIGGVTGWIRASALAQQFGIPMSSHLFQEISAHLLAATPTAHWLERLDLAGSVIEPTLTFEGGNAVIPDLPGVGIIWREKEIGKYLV
In words: Circular Dichroism (CD) Based Assays. The settings on record: pH 7.5. As for the experimental part:
MR activity was assayed using a CD-based assay by following the change in ellipticity of mandelate at 262 nm using a thermostated quartz cuvette with a 1-cm light path (unless otherwise indicated) as described by Sharp et al. Allassays (total volume of 2 mL) were conducted at 25 °C in Na+ HEPES buffer (0.1 M, pH 7.5) containing MgCl2 (3.3 mM), BSA [0.005% (w/v)], and (R)-mandelate as the substrate. The concentration of MR was determined from its absorbance at 280 nm using an extinction coefficient of 53400 M^−1 cm^−1.
(CD spectra are sensitive to the conformation of chiral molecules.)

SMILES strings stand for the structures.

As for `O=C(O)C(=O)C(=O)O` [Mesoxalate], the Ki (commonly the equilibrium dissociation constant of an inhibitor or competing ligand from its target) is 1800 µM.

The compound `O=C(O)C(=O)CF` [3-fluoro-2-oxopropanoate] yielded a Ki of 1300 µM.
